# Experimental data reported in article PMC5053573, “Structure-Based Design of Tetrahydroisoquinoline-7-carboxamides as Selective Discoidin Domain Receptor 1 (DDR1) Inhibitors” (Journal of Medicinal Chemistry, 2016).
# Columns and labels:
# Assay in all cases: biochemical
# Details in all cases: read-out: %Ctrl @ 1000nM
# KIT(V559D,V654A) = KIT(V559D,V654A) (Homo sapiens, UniProt P10721, V559D/V654A)
# [1] = target: T1, RSK4(Kin.Dom.1-N-terminal) (Homo sapiens, UniProt Q9UK32)
# T1 construct: gene RPS6KA6
# [2] = target: T2, RSK2(Kin.Dom.1-N-terminal) (Homo sapiens, UniProt P51812)
# T2 construct: gene RPS6KA3
# CSNK1G2 = CSNK1G2 (Homo sapiens, UniProt P78368)
# ABL2 = ABL2 (Homo sapiens, UniProt P42684)
# TRKA = target: T3, TRKA (Homo sapiens, UniProt P04629)
# T3 construct: gene NTRK1
# IGF1R = IGF1R (Homo sapiens, UniProt P08069)
# PIK3CA(E545A) = PIK3CA(E545A) (Homo sapiens, UniProt P42336, E545A)
# ITK = ITK (Homo sapiens, UniProt Q08881)
# MST4 = target: T4, MST4 (Homo sapiens, UniProt Q9P289)
# T4 construct: gene STK26
# MEK3 = target: T5, MEK3 (Homo sapiens, UniProt P46734)
# T5 construct: gene MAP2K3
# HIPK1 = HIPK1 (Homo sapiens, UniProt Q86Z02)
# CDC2L5 = target: T6, CDC2L5 (Homo sapiens, UniProt Q14004)
# T6 construct: gene CDK13
# CSNK1E = CSNK1E (Homo sapiens, UniProt P49674)
# S6K1 = target: T7, S6K1 (Homo sapiens, UniProt P23443)
# T7 construct: gene RPS6KB1
# PIK3C2B = PIK3C2B (Homo sapiens, UniProt O00750)
# HIPK3 = HIPK3 (Homo sapiens, UniProt Q9H422)
# [3] = target: ABL1(F317I)-phosphorylated (Homo sapiens, UniProt P00519, F317I)
# [4] = target: T8, RSK4(Kin.Dom.2-C-terminal) (Homo sapiens, UniProt Q9UK32)
# T8 construct: gene RPS6KA6
# MAPKAPK5 = MAPKAPK5 (Homo sapiens, UniProt Q8IW41)
# NEK3 = NEK3 (Homo sapiens, UniProt P51956)
# TIE1 = TIE1 (Homo sapiens, UniProt P35590)
# MYLK2 = MYLK2 (Homo sapiens, UniProt Q9H1R3)
# FLT3(R834Q) = FLT3(R834Q) (Homo sapiens, UniProt P36888, R834Q)
# MLK3 = target: T9, MLK3 (Homo sapiens, UniProt Q16584)
# T9 construct: gene MAP3K11
# LOK = target: T10, LOK (Homo sapiens, UniProt O94804)
# T10 construct: gene STK10
# OSR1 = target: T11, OSR1 (Homo sapiens, UniProt O95747)
# T11 construct: gene OXSR1
# MYO3B = MYO3B (Homo sapiens, UniProt Q8WXR4)
# NEK2 = NEK2 (Homo sapiens, UniProt P51955)
# FLT3(K663Q) = FLT3(K663Q) (Homo sapiens, UniProt P36888, K663Q)
# PIKFYVE = PIKFYVE (Homo sapiens, UniProt Q9Y2I7)
# FGFR4 = FGFR4 (Homo sapiens, UniProt P22455)
# BMPR2 = BMPR2 (Homo sapiens, UniProt Q13873)
# SBK1 = SBK1 (Homo sapiens, UniProt Q52WX2)
# MAPKAPK5, sequence (Q8IW41 whole entry): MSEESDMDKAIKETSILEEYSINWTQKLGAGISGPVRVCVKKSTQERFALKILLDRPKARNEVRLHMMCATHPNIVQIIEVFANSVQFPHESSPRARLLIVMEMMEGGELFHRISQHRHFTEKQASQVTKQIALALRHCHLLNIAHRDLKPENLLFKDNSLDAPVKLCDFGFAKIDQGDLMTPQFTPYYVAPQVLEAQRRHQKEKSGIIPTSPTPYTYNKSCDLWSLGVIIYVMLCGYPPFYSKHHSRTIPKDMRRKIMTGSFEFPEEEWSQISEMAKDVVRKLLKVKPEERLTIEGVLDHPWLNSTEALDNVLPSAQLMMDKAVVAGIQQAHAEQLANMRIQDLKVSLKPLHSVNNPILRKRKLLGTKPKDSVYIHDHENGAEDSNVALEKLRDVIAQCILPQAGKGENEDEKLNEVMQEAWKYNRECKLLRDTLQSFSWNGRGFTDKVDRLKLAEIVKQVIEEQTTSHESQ
# CSNK1E, sequence (P49674 whole entry): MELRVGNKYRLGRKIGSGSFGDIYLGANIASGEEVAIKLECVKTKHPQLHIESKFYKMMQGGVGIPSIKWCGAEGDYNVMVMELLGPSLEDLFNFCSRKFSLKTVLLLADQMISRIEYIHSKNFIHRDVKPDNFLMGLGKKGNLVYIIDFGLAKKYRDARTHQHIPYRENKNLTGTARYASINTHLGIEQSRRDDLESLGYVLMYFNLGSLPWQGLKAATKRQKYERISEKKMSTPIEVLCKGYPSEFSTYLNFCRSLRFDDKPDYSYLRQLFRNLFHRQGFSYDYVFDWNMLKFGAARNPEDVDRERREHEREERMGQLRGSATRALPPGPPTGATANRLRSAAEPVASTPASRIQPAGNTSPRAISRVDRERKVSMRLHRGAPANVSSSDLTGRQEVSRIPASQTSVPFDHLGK
# T2 sequence (P51812 whole entry): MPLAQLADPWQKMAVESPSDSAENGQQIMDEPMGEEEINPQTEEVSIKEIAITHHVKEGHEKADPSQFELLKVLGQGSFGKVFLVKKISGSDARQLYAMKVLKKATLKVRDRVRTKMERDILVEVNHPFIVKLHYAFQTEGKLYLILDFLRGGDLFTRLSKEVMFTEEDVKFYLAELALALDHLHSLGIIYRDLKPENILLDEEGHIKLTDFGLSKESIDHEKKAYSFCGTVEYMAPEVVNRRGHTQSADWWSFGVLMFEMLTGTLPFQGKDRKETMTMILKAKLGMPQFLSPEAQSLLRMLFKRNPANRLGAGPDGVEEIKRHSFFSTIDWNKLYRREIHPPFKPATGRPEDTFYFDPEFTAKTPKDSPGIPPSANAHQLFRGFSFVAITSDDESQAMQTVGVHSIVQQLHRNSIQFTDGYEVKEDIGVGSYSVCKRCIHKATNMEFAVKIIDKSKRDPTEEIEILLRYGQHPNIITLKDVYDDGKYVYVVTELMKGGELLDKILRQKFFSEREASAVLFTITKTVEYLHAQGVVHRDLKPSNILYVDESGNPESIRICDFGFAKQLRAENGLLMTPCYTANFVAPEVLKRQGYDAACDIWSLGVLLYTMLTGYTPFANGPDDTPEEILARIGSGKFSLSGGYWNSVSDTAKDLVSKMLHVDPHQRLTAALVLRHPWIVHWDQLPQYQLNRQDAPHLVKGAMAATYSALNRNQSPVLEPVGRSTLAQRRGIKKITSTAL
# NEK2, sequence (P51955 whole entry): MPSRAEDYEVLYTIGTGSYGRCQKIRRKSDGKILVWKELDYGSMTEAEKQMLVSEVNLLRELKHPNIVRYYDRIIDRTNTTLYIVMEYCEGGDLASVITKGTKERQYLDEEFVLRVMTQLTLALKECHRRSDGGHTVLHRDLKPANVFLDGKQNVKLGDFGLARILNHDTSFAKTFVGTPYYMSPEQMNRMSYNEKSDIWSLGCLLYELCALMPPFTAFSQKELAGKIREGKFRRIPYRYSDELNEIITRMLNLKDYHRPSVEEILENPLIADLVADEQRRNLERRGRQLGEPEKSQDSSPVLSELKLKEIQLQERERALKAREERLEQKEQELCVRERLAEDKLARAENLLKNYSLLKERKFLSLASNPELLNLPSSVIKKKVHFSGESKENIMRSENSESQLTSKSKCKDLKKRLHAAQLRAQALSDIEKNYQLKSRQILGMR
# T5 sequence (P46734 whole entry): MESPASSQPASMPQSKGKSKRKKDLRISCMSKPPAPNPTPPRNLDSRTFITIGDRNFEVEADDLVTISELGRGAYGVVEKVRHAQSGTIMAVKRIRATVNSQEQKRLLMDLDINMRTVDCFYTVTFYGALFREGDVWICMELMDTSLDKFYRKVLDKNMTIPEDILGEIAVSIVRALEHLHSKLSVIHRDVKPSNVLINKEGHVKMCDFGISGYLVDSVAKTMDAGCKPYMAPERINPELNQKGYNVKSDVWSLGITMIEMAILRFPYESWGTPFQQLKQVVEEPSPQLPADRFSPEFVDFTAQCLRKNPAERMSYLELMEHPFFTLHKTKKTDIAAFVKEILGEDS
# KIT(V559D,V654A), sequence (P10721 whole entry V559D/V654A): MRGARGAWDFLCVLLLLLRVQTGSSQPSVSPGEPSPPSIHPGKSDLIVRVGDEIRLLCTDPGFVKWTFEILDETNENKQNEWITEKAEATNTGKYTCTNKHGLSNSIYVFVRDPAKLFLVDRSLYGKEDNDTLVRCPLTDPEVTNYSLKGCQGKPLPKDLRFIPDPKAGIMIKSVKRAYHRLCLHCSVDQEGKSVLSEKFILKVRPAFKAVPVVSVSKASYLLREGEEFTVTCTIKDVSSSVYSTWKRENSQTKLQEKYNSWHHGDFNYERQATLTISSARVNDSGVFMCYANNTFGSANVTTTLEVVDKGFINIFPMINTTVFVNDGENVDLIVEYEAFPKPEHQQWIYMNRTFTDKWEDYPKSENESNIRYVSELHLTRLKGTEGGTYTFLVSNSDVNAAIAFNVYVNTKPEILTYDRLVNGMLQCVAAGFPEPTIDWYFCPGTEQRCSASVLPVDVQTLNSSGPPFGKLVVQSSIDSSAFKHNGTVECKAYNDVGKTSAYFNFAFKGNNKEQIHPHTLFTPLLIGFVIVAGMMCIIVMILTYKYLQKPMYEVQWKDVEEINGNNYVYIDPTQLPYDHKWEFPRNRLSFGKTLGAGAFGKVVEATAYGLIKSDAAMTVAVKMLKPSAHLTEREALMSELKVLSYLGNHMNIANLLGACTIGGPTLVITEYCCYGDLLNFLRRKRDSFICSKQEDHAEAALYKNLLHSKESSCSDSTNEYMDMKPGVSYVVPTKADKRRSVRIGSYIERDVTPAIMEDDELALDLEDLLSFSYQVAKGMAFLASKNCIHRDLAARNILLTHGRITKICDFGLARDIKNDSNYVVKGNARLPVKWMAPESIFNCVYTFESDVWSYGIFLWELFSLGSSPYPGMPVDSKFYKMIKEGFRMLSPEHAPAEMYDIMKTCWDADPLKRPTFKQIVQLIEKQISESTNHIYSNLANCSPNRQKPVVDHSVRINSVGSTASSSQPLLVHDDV
# T7 sequence (P23443 whole entry): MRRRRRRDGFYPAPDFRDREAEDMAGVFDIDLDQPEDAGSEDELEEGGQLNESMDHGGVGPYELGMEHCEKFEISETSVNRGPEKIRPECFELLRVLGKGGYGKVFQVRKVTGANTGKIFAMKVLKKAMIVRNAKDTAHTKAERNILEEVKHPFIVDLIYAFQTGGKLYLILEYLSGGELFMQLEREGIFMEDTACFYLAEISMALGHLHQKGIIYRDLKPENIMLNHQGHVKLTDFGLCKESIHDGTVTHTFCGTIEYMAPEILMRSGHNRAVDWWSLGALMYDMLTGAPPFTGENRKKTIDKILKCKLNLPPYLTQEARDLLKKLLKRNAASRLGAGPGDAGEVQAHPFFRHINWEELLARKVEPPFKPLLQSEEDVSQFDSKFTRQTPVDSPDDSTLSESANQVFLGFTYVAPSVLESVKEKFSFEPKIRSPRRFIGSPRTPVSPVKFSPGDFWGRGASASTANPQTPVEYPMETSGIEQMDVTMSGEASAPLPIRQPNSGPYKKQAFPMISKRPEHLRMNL
# CSNK1G2, sequence (P78368 whole entry): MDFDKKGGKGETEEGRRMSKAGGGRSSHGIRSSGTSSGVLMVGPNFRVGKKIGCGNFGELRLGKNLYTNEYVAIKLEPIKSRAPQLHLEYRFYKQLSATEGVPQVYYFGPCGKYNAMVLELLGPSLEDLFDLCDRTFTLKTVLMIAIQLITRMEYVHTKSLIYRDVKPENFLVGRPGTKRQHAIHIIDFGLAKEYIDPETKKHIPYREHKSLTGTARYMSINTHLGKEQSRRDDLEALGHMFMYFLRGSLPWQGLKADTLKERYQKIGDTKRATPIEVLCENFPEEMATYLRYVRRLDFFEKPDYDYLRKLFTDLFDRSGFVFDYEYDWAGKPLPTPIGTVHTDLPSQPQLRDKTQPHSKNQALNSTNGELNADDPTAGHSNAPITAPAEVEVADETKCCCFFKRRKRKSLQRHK
# ITK, sequence (Q08881 whole entry): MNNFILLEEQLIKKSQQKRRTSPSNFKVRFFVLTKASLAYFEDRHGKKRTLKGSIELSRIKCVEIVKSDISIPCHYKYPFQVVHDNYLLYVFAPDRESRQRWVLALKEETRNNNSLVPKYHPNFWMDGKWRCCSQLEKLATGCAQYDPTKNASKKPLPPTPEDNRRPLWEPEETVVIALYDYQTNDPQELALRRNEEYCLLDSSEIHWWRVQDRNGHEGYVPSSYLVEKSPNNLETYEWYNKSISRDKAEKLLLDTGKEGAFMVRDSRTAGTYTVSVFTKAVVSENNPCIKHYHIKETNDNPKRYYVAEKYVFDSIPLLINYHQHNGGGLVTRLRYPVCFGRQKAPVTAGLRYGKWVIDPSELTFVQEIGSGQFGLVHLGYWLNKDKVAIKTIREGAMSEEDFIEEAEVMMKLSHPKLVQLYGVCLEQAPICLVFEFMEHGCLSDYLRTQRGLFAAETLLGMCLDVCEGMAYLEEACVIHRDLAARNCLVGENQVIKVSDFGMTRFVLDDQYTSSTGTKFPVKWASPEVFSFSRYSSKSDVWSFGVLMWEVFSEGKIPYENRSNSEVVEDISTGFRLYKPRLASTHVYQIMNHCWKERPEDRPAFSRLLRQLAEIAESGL
smiles,measurement,setting,value
Cc1cn(-c2cc(NC(=O)c3ccc4c(c3)CN(c3cncnc3)C[C@@H]4C)cc(C(F)(F)F)c2)cn1 [Compound 6j],remaining activity at 1 µM,"KIT(V559D,V654A)",86%
same,remaining activity at 1 µM,[1],100%
same,remaining activity at 1 µM,[2],100%
same,remaining activity at 1 µM,CSNK1G2,92%
same,remaining activity at 1 µM,ABL2,46%
same,remaining activity at 1 µM,TRKA,3.2%
same,remaining activity at 1 µM,IGF1R,100%
same,remaining activity at 1 µM,PIK3CA(E545A),86%
same,remaining activity at 1 µM,ITK,97%
same,remaining activity at 1 µM,MST4,100%
same,remaining activity at 1 µM,MEK3,100%
same,remaining activity at 1 µM,HIPK1,85%
same,remaining activity at 1 µM,CDC2L5,100%
same,remaining activity at 1 µM,CSNK1E,86%
same,remaining activity at 1 µM,S6K1,100%
same,remaining activity at 1 µM,PIK3C2B,100%
same,remaining activity at 1 µM,HIPK3,86%
same,remaining activity at 1 µM,[3],82%
same,remaining activity at 1 µM,[4],74%
same,remaining activity at 1 µM,MAPKAPK5,100%
same,remaining activity at 1 µM,NEK3,94%
same,remaining activity at 1 µM,TIE1,74%
same,remaining activity at 1 µM,MYLK2,100%
same,remaining activity at 1 µM,FLT3(R834Q),86%
same,remaining activity at 1 µM,MLK3,81%
same,remaining activity at 1 µM,LOK,72%
same,remaining activity at 1 µM,OSR1,100%
same,remaining activity at 1 µM,MYO3B,85%
same,remaining activity at 1 µM,NEK2,95%
same,remaining activity at 1 µM,FLT3(K663Q),62%
same,remaining activity at 1 µM,PIKFYVE,100%
same,remaining activity at 1 µM,FGFR4,85%
same,remaining activity at 1 µM,BMPR2,100%
same,remaining activity at 1 µM,SBK1,100%
